Laboratory results taken from patent publication US20200148646A1, “6-S[…] 7-S[…] ANALOGS AND THE USE THEREOF” (Purdue Pharma, L.P., priority 2013, published 2020).

How the values were obtained:
[1] = molecular target: human κ opioid receptor (Homo sapiens, UniProt P41145); assay: κ-opioid receptor [35S]GTPγS functional assay, U-2 OS cells; format: biochemical; design: expressed in transfected cells; host or cells: U-2 OS cells (in-house membranes); settings: for Emax: U2-OS cells, relative to U69,593
human κ opioid receptor, sequence (P41145 whole entry): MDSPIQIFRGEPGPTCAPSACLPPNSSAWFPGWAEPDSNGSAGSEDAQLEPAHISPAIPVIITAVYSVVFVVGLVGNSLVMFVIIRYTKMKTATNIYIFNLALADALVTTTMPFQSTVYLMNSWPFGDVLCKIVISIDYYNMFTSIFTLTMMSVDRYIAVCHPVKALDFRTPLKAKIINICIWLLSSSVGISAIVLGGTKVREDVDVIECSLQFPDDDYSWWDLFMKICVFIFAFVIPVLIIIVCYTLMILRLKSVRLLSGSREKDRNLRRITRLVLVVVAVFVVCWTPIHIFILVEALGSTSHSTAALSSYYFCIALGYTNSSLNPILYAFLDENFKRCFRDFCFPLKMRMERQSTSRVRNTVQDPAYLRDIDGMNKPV
Procedure: Membranes from recombinant HEK-293 cells, CHO or U-2 OS cells expressing the recombinant human K opioid receptor (K) were prepared by lysing cells in ice cold hypotonic buffer (2.5 mM MgCl2, 50 mM HEPES, pH 7.4) (10 mL/10 cm dish) followed by homogenization with a tissue grinder/Teflon pestle. Functional [^35S]GTPγS binding assays were conducted as follows. K opioid receptor membrane solution was prepared by sequentially adding final concentrations of 0.026 μg/μl κ membrane protein (in-house), 10 μg/mL saponin, 3 μM GDP and 0.20 nM [^35S]GTPγS to binding buffer (100 mM NaCl, 10 mM MgCl2, 20 mM HEPES, pH 7.4) on ice. The prepared membrane solution (190 μl/well) was transferred to 96-shallow well polypropylene plates containing 10 μl of 20× concentrated stock solutions of agonist prepared in DMSO. Plates were incubated for 30 min at a temperature of about 25° C. with shaking. Reactions were terminated by rapid filtration onto 96-well Unifilter GF/B filter plates (Perkin Elmer, Shelton, Conn.) using a 96-well tissue harvester (Packard) and followed by three filtration washes with 200 μl ice-cold binding buffer (10 mM NaH2PO4, 10 mM Na2HPO4, pH 7.4). Filter plates were subsequently dried at 50° C. for 2-3 hours. Fifty μl/well scintillation cocktail (Perkin Elmer, Shelton, Conn.) was added and plates were counted in a Packard Top-Count for 1 min/well.
κ GTP EC50 is the concentration of a compound providing 50% of the maximal response for the compound at a κ receptor.
κ GTP Emax (%) is the maximal effect elicited by a compound relative to the effect elicited by U69,593.
(§1) In TABLE 2A, activity response of certain Compounds of the Invention at the μ- and κ-opioid receptors using U-2 OS cells was determined as described above for functional assays.

[2] = molecular target: μ-opioid receptor (Homo sapiens, UniProt P35372); assay: μ-opioid receptor [35S]GTPγS functional assay, U-2 OS cells; format: biochemical; design: host or cells: U-2 OS cells; settings: for Emax: U2-OS cells, relative to DAMGO
μ-opioid receptor, sequence (P35372 whole entry, species assumed): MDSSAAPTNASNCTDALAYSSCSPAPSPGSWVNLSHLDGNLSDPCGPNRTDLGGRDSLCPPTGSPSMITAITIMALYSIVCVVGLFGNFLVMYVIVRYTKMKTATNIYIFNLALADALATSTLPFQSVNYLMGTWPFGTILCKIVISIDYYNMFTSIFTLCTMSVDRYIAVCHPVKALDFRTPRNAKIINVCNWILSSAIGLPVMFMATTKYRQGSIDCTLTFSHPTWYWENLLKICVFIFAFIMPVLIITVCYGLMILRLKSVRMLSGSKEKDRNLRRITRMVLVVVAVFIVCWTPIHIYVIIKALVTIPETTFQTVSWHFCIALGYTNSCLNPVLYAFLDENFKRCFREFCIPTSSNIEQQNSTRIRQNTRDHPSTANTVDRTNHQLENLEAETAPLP
Procedure: [^35S]GTPγS functional assays were conducted using freshly thawed μ-receptor membranes prepared in-house from a cell line expressing recombinant opioid receptor in a HEK-293, CHO or U-2 OS cell background, or purchased from a commercial source (Perkin Elmer, Shelton, Conn.; or DiscovRx, Fremont, Calif.). Assay reactions were prepared by sequentially adding the following reagents to binding buffer (100 mM NaCl, 10 mM MgCl2, 20 mM HEPES, pH 7.4) on ice (final concentrations indicated): membrane protein (0.026 mg/mL), saponin ([…]), GDP ([…]) and [^35S]GTPγS (0.20 nM; Perkin Elmer, Shelton, Conn.). The prepared membrane solution (190 l/well) was transferred to 96-shallow well polypropylene plates containing 10 μl of 20× concentrated stock solutions of the agonist [D-Ala^2, N-methyl-Phe^4 Gly-ol^5]-enkephalin (DAMGO) prepared in dimethyl sulfoxide (DMSO). Plates were incubated for 30 min at about 25° C. with shaking. Reactions were terminated by rapid filtration onto 96-well Unifilter GF/B filter plates (Perkin Elmer, Shelton, Conn.) using a 96-well tissue harvester (Perkin Elmer, Shelton, Conn.) followed by three filtration washes with 200 μl of ice-cold wash buffer (10 mM NaH2PO4, 10 mM Na2HPO4, pH 7.4). Filter plates were subsequently dried at 50° C. for 2-3 hr. BetaScint scintillation cocktail (Perkin Elmer, Shelton, Conn.) was added (50 μl/well) and plates were counted using a Packard Top-Count for 1 min/well. Data were analyzed using the sigmoidal dose-response curve fitting functions in GraphPad PRISM v. 3.0, or an in-house function for non-linear, sigmoidal dose-response curve-fitting.
μ GTP EC50 is the concentration of a compound providing 50% of the maximal response for the compound at a μ-opioid receptor.
μ GTP Emax (%) is the maximal effect elicited by a compound relative to the effect elicited by DAMGO, a standard agonist. Generally, the μ GTP Emax (%) value measures the efficacy of a compound to treat or prevent pain or other Conditions.
as §1

SMILES	EC50 [1] [nM]	Emax [1] [%]	EC50 [2] [nM]	Emax [2] [%]
O=C(N[C@H]1C[C@@]2(O)[C@H]3Cc4ccc(O)cc4[C@@]2(CCN3CC2CC2)C[C@H]1O)c1ccccc1 [Compound 66, N-((4bR,6R,7S,8aS,9R)-11-(cyclopropylmethyl)-3,6,8a-trihydroxy-6,7,8,8a,9,10-hexahydro-5H-9,4b-(epiminoethano)phenanthren-7-yl)benzamide]	39.2 ± 4.27	71.7 ± 1.2	114 ± 14.5	15 ± 0.58
COc1ccc2c(c1)[C@]13CCN(CC4CC4)[C@H](C2)[C@]1(O)C[C@@H](NCC(C)C)[C@@H](O)C3 [Compound 33, (4bR,6S,7R,8aS,9R)-11-(cyclopropylmethyl)-7-(isobutylamino)-3-methoxy-5,6,7,8,9,10-hexahydro-8aH-9,4b-(epiminoethano)phenanthrene-6,8a-diol]	328 ± 22.1	93.7 ± 1.76	503 ± 43.5	43 ± 3.79
N=C(N)NCCN[C@H]1CC[C@]23CCN(CC4CC4)[C@H](Cc4ccc(O)cc42)[C@]3(O)C1 [Compound 32, 1-(2-(((4bS,7S,8aS,9R)-11-(cyclopropylmethyl)-3,8a-dihydroxy-6,7,8,8a,9,10-hexahydro-5H-9,4b-(epiminoethano)phenanthren-7-yl)amino)ethyl)guanidine]	> 20000	-1	> 20000	5.33 ± 1.45
COc1ccc2c(c1)[C@]13CCN(CC4CC4)[C@H](C2)[C@]1(O)C[C@H](NC(=O)C(C)C)C(O)C3 (stereo partly drawn) [Compound 49, N-((4bR,7S,8aS,9R)-11-(cyclopropylmethyl)-6,8a-dihydroxy-3-methoxy-6,7,8,8a,9,10-hexahydro-5H-9,4b-(epiminoethano)phenanthren-7-yl)isobutyramide]	7940	90.3 ± 1.67	8460	27 ± 1.53
O=C(N[C@H]1C[C@@]2(O)[C@H]3Cc4ccc(O)cc4[C@@]2(CCN3CC2CC2)CC1O)C1CCCCC1 (stereo partly drawn) [Compound 65, N-((4bR,7S,8aS,9R)-11-(cyclopropylmethyl)-3,6,8a-trihydroxy-6,7,8,8a,9,10-hexahydro-5H-9,4b-(epiminoethano)phenanthren-7-yl)cyclohexanecarboxamide]	15.9 ± 2.09	106 ± 1.89	68.4 ± 13	26.7 ± 0.67
COc1ccc2c(c1)[C@@]13CCC(=O)C[C@@]1(O)[C@@H](C2)N(CC1CC1)CC3 [Compound 31, (4bS,8aS,9R)-11-(cyclopropylmethyl)-8a-hydroxy-3-methoxy-5,6,8,8a,9,10-hexahydro-7H-9,4b-(epiminoethano)phenanthren-7-one]	633 ± 87.1	108 ± 3.76	740 ± 49.5	57.3 ± 2.73
CC(C)CC(=O)N[C@H]1C[C@@]2(O)[C@H]3Cc4ccc(O)cc4[C@@]2(CCN3CC2CC2)C[C@H]1O [Compound 60, N-((4bR,6R,7S,8aS,9R)-11-(cyclopropylmethyl)-3,6,8a-trihydroxy-6,7,8,8a,9,10-hexahydro-5H-9,4b-(epiminoethano)phenanthren-7-yl)-3-methylbutanamide]	31.4 ± 3.7	106 ± 6.06	54.7 ± 8.1	25.3 ± 0.33
COc1ccc2c(c1)[C@]13CCN(CC4CC4)[C@H](C2)[C@]1(O)C[C@H](OCC(C)C)[C@H](O)C3 [Compound 51, (4bR,6R,7S,8aS,9R)-11-(cyclopropylmethyl)-7-isobutoxy-3-methoxy-5,6,7,8,9,10-hexahydro-8aH-9,4b-(epiminoethano)phenanthrene-6,8a-diol]	14500 ± 1680	86.7 ± 3.18	> 20000	7
O=C(O)CN[C@@H]1C[C@@]2(O)[C@H]3Cc4ccc(O)cc4[C@@]2(CCN3CC2CC2)C[C@@H]1O [Compound 40, ((4bR,6S,7R,8aS,9R)-11-(cyclopropylmethyl)-3,6,8a-trihydroxy-6,7,8,8a,9,10-hexahydro-5H-9,4b-(epiminoethano)phenanthren-7-yl)glycine]	7.24 ± 0.65	43 ± 3.06	> 20000	2
O=C(N[C@H]1C[C@@]2(O)[C@H]3Cc4ccc(O)cc4[C@@]2(CCN3CC2CC2)C[C@H]1O)C1CC1 [Compound 64, N-((4bR,6R,7S,8aS,9R)-11-(cyclopropylmethyl)-3,6,8a-trihydroxy-6,7,8,8a,9,10-hexahydro-5H-9,4b-(epiminoethano)phenanthren-7-yl)cyclopropanecarboxamide]	48.3 ± 3.1	93.7 ± 2.33	112 ± 19.3	7.33 ± 0.33
Oc1ccc2c(c1)[C@]13CCN(CC4CC4)[C@H](C2)[C@]1(O)C[C@@H](N1CCOCC1)[C@@H](O)C3 [Compound 39, (4bR,6S,7R,8aS,9R)-11-(cyclopropylmethyl)-7-morpholino-5,6,7,8,9,10-hexahydro-8aH-9,4b-(epiminoethano)phenanthrene-3,6,8a-triol]	> 20000	1	> 20000	2
CC(C)C(=O)N[C@H]1C[C@@]2(O)[C@H]3Cc4ccc(O)cc4[C@@]2(CCN3CC2CC2)C[C@H]1O [Compound 58, N-((4bR,6R,7S,8aS,9R)-11-(cyclopropylmethyl)-3,6,8a-trihydroxy-6,7,8,8a,9,10-hexahydro-5H-9,4b-(epiminoethano)phenanthren-7-yl)isobutyramide]	38.1 ± 2.2	101 ± 1.2	80.9 ± 15.1	19.3 ± 1.45
CCC(C)C[C@H]1C[C@@]2(O)[C@H]3Cc4ccc(O)cc4[C@@]2(CCN3CC2CC2)C[C@H]1O (stereo partly drawn) [Compound 53, (4bR,6R,7S,8aS,9R)-11-(cyclopropylmethyl)-7-(2-methylbutyl)-5,6,7,8,9,10-hexahydro-8aH-9,4b-(epiminoethano)phenanthrene-3,6,8a-triol]	73.8 ± 11.8	62 ± 1.53	> 20000	3
COc1ccc2c(c1)[C@@]13CC[C@H](NCC(C)C)C[C@@]1(O)[C@@H](C2)N(CC1CC1)CC3 [Compound 41, (4bS,7S,8aS,9R)-11-(cyclopropylmethyl)-7-(isobutylamino)-3-methoxy-5,6,7,8,9,10-hexahydro-8aH-9,4b-(epiminoethano)phenanthren-8a-ol]	41.6 ± 2.25	102 ± 2.19	674 ± 63.8	74.7 ± 4.67
CC(C)CCC(=O)N[C@H]1C[C@@]2(O)[C@H]3Cc4ccc(O)cc4[C@@]2(CCN3CC2CC2)C[C@H]1O [Compound 61, N-((4bR,6R,7S,8aS,9R)-11-(cyclopropylmethyl)-3,6,8a-trihydroxy-6,7,8,8a,9,10-hexahydro-5H-9,4b-(epiminoethano)phenanthren-7-yl)-4-methylpentanamide]	15.4 ± 2.43	97.7 ± 2.19	61.6 ± 5.41	26.7 ± 0.88
Oc1ccc2c(c1)[C@]13CCN(CC4CC4)[C@H](C2)[C@]1(O)C[C@@H](NCc1ccccc1)[C@H](O)C3 [Compound 37, (4bR,6R,7R,8aS,9R)-7-(benzylamino)-11-(cyclopropylmethyl)-5,6,7,8,9,10-hexahydro-8aH-9,4b-(epiminoethano)phenanthrene-3,6,8a-triol]	0.5 ± 0.039	87.7 ± 2.19	3.35 ± 0.41	24.3 ± 0.88
